According to patent publication US20250206779A1, “ANGIOTENSIN-(1-9) ANALOGUE BASED ON D AMINO ACIDS, PHARMACEUTICAL COMPOSITIONS AND USES THEREOF” (UNIVERSIDAD DE CHILE, priority 2021, published 2025):
Where a SMILES comes first, the peptide text is derived from it. Where no end group is shown, it is not given here. [ ]: non-standard residue; d: D form.

What was measured:
[1] = Stability in human serum determined by HPLC; assay type: in vitro ADME; settings: 37° C.
Experimental: The retro-inverse peptides were dissolved in PBS to obtain a final concentration of 1 mM. From this stock, an aliquot of 50 μL was taken and diluted to 450 μL of human serum (Sigma Aldrich from human male AB plasma, USA origin, sterile-filtered) at 37° C. under agitation, to obtain an initial concentration of […] and incubated for 48 h. Aliquots of 50 μL were extracted at 0, 5, 10 min and 1, 3, 6, 24 and 48 h and added to 200 μL of methanol at 4° C. for 30 min to precipitate serum proteins. The samples were then centrifuged at 13,000 g in Hermle Cooling Centrifuge Z 326 K 311.00 V01 at 4° C. for 30 min. The supernatants (approximately 200 μL) were obtained, placed in vials, and then analyzed by HPLC. All analyzes were performed on the Perkin Elmer auto sampler flexo HPLC, using a reverse phase 4.6×100 mm column with a particle size of […] (Waters XBridge Peptide BEH C18 Column). Mobile phase A was 100% acetonitrile and phase B was TFA 0.0004% in Milli-Q water. The initial composition of eluent was 5% A and 95% B for 1 min and then a linear gradient to reach 100% A in 19 min and then return to the initial composition in 4 min, with a total run time of 25 min. The eluent flow was 0.9 mL/min and the temperature of the column was adjusted to 26° C. L measurement was performed at a UV signal of 220 nm wavelength. Where 50 μL was injected per sample. Peptides were identified based on their retention time in the respective chromatogram obtained in the Chromera-HPLC flexar program.

[2] = system: adult rat cardiac fibroblasts; test: Cardiac fibroblast proliferation, cell count in Neubauer chamber; assay type: cell-based; settings: DMEM F-12 5% FBS, 24 h, trypan blue cell count
Experimental: Male Sprague-Dawley rats (250-300 g) were anesthetized with ketamine-xylazine (66 and 1.6 mg/kg i.p., respectively). Adult rat cardiac fibroblasts were isolated by retrograde aortic perfusion. Briefly, hearts were digested with collagenase type B solution for 1 h, and cells were centrifuged at 500 rpm for 2 min. The supernatant, mainly adult rat cardiac fibroblasts, was centrifuged at 1000 rpm for 10 min, resuspended in Dulbecco's Modified Eagle Medium: Nutrient Mixture F-12 (DMEM F-12) plus 15% fetal bovine serum (FBS) and then seeded in nontreated culture dishes during 3 h. Cells were washed with phosphate buffered saline to eliminate debris and nonadherent cells. Adult rat cardiac fibroblasts were used at passage one and seeded on 60 mm cell culture dishes in DMEM F-12 plus 10% FBS and incubated at […] for 3 h. To synchronize cells, they were washed and incubated in DMEM F-12 (without serum, 0% FBS) for 24 h before experimentation. Cell proliferation was determined in cardiac fibroblasts incubated for 24 h with and without retro-inverse angiotensin-(1-9) in DMEM F-12 5% FBS. Cells were trypsinized and cell number was determined using trypan blue method in a Neubauer chamber.

[3] = system: cardiac myocytes isolated from neonatal Sprague-Dawley rat ventricles; test: Norepinephrine-induced cardiomyocyte hypertrophy, western blot of β-MHC and ANP; assay type: cell-based; settings: 1, 10 or 100 μM peptide, 10 μM norepinephrine
Experimental: Cardiac myocytes were isolated from neonatal Sprague-Dawley rat ventricles. Cardiac myocytes were plated at 70% final density in gelatin-coated wells (12-well plates) or in 60-mm Petri dishes and maintained at 37° C. in a humidified atmosphere of 5% CO2/95% air for 24 h in Dulbecco's Modified Eagle's medium [(DMEM)/M199](4:1) containing 10% fetal bovine serum and 5% fetal calf serum. Serum was withdrawn 24 h before preincubation with 1, 10 or 100 μM retro-inverse angiotensin-(1-9) for 1 h; then, 10 μM norepinephrine (Sigma, St Louis, Missouri, USA) were added and the cultures were incubated for 24 h. Then cells were washed with PBS at 4° C. and then cells were lysed with 50 μL of RIPA lysis buffer (Tris-HCl 10 mM pH 7.4, EDTA 5 mM, NaCl 50 mM, deoxycholic acid 1%, Triton X-100 1% v/v) supplemented with phosphatase and protease inhibitors (Roche). After centrifugation at 12,000 r.p.m. for 15 min at 4° C., the supernatat was recovered; total protein content was determined by using Bradford (BioRad protein assay, BioRad, Hercules, CA, USA). Proteins were denatured in SDS-PAGE 4× buffer and resolved in 12% PAGE-SDS. After electrotransference, beta-myosin heavy chain (β-MHC) and atrial natriuretic peptide (ANP) were used as hypertrophic markers. β-tubulin was used as loading control. As expected, norepinephrine 10 μM for […], a cardiomyocyte hypertrophy inducer, triggered β-MHC and ANP increase (FIG. 3).

Q: With “DRVYIHPFH [angiotensin-(1-9), Asp-Arg-Val-Tyr-Ile-His-Pro-Phe-His]” as the molecule, how does the “degradation after incubation with human serum” value ([1]; 3 h incubation) read?
A: The value was “completely degraded”.

Q: With `O=c1[nH]c(=O)n([C@H]2C[C@H](O)[C@@H](CO)O2)cc1Br` [bromodeoxyuridine, reference compound] as the molecule, how does the fibroblast proliferation [2] read?
A: The fibroblast proliferation was “comparable to bromodeoxyuridine”.

Q: With `CC[C@@H](C)[C@@H](NC(=O)[C@@H](Cc1c[nH]cn1)NC(=O)[C@H]1CCCN1C(=O)[C@@H](Cc1ccccc1)NC(=O)[C@H](N)Cc1c[nH]cn1)C(=O)N[C@H](Cc1ccc(O)cc1)C(=O)N[C@@H](C(=O)N[C@H](CCCNC(=N)N)C(=O)N[C@H](CC(=O)O)C(N)=O)C(C)C` [retro-inverse angiotensin-(1-9) amide, ^DH^DF^DP^DH^DI^DY^DV^DR^DD-CONH2] (H-[dH][dF][dP][dH][dI][dY][dV][dR][dD]-NH2) as the molecule, how does the “degradation after incubation with human serum” value ([1]; 24 h incubation) read?
A: Its value is “no significant degradation”.

Q: And the “increase of ANP induced by norepinephrine” value [3]?
A: Its value is “blocked”.
